Measured values reported in US12577594B2, “Engineered microorganisms and methods for improved aldehyde dehydrogenase activity” (Genomatica, Inc., priority 2019, dated 2026).

Legend:
Assay in all cases: Kinetic characterization of purified Ald with varied substrate CoA (Example 4, Table 5)
[1] = system: Acidaminococcus massiliensis aldehyde dehydrogenase (Ald), SEQ ID NO: 28; type: biochemical; conditions: for Catalytic efficiency kcat/KM / Km / Turnover number kcat: purified protein, substrate CoA varied, conditions similar to Example 1 (0.1 M Tris-HCl, pH 7.5)
Method: (§1) The lysates (5 μl) were added to an assay mixture to result in a total volume of 20 μL with final concentrations of 0.1 M Tris-HCl, pH 7.5, 2.5 mM adipyl-CoA (AdCoA), and either 0.5 mM NADH or 0.5 mM NADPH. This assay was used to screen all of the Ald enzyme candidates. Some Ald candidates were also assayed using succinyl-CoA (SuCoA) or acetyl-CoA (AcCoA) as substrates. AdCoA, SuCoA, and AcCoA were obtained from commercial suppliers. Activity was monitored by a linear decrease in fluorescence of NADH or NADPH in the presence of the CoA substrate.
(§2) Kinetic characterization was done under similar conditions as the lysate screening described in Example 1; however, in this case purified protein was used instead of cell lysates. Each of the Acidaminococcus massiliensis Ald (SEQ ID NO:28), the Collinsella sp. GD7 Ald (SEQ ID NO:60), and the Romboutsia lituseburensis DSM Ald (SEQ ID NO:107) was purified using affinity chromatography. In these assays, the concentration each of the substrate CoAs was varied to determine the turnover number (kcat), the affinity of the enzyme for the substrate (KM) of the enzyme, the catalytic efficiency (kcat/KM) of each selected Ald enzyme for each substrate were determined and shown in the Table 5 below.
(§3) Catalytic efficiency (kcat/KM) of the various aldehyde dehydrogenases using various substrates were plotted in a bar graph for comparison (FIG. 3A).

[2] = system: Collinsella sp. GD7 aldehyde dehydrogenase (Ald), SEQ ID NO: 60; type: biochemical; conditions: for Catalytic efficiency kcat/KM / Km / Turnover number kcat: purified protein, substrate CoA varied, conditions similar to Example 1 (0.1 M Tris-HCl, pH 7.5)
Method: as §1, §2, §3

[3] = target: Romboutsia lituseburensis DSM aldehyde dehydrogenase (Ald), SEQ ID NO: 107 (Romboutsia lituseburensis, UniProt A0A1G9MGA8); type: biochemical; conditions: ratio of kcat/KM
Method: as §1, §2, §3

[4] = system: CC(C)(COP(=O)(O)OP(=O)(O)OC[C@H]1O[C@@H](n2cnc3c(N)ncnc32)[C@H](O)[C@@H]1OP(=O)(O)O)[C@@H](O)C(=O)NCCC(=O)NCCSC(=O)CCC(=O)O; type: biochemical, Romboutsia lituseburensis DSM; conditions: other: purified protein, conditions similar to Example 1 (0.1 M Tris-HCl, pH 7.5)
Method: as §1, §2, §3

[5] = system: CC(C)(COP(=O)(O)OP(=O)(O)OC[C@H]1O[C@@H](n2cnc3c(N)ncnc32)[C@H](O)[C@@H]1OP(=O)(O)O)[C@@H](O)C(=O)NCCC(=O)NCCSC(=O)CCCCC(=O)O; type: biochemical, Romboutsia lituseburensis DSM; conditions: other: purified protein, conditions similar to Example 1 (0.1 M Tris-HCl, pH 7.5)
Method: as §1, §2, §3

[6] = system: CC(=O)SCCNC(=O)CCNC(=O)[C@H](O)C(C)(C)COP(=O)(O)OP(=O)(O)OC[C@H]1O[C@@H](n2cnc3c(N)ncnc32)[C@H](O)[C@@H]1OP(=O)(O)O; type: biochemical, Romboutsia lituseburensis DSM; conditions: other: purified protein, conditions similar to Example 1 (0.1 M Tris-HCl, pH 7.5)
Method: as §1, §2, §3

Compound: CC(=O)SCCNC(=O)CCNC(=O)[C@H](O)C(C)(C)COP(=O)(O)OP(=O)(O)OC[C@H]1O[C@@H](n2cnc3c(N)ncnc32)[C@H](O)[C@@H]1OP(=O)(O)O [Acetyl-CoA]
- Catalytic efficiency kcat/KM [1]: 100 M⁻¹ s⁻¹
- Km [1]: 380 µM
- Turnover number kcat [1]: 0.040 s⁻¹
- Catalytic efficiency kcat/KM [2]: 1.6 M⁻¹ s⁻¹
- Km [2]: > 2000 µM

Compound: CC(C)(COP(=O)(O)OP(=O)(O)OC[C@H]1O[C@@H](n2cnc3c(N)ncnc32)[C@H](O)[C@@H]1OP(=O)(O)O)[C@@H](O)C(=O)NCCC(=O)NCCSC(=O)CCCCC(=O)O [Adipyl-CoA]
- Catalytic efficiency (kcat/KM) for adipyl-CoA over succinyl-CoA ([3]; FIG. 3B): higher catalytic efficiency for adipyl-CoA over succinyl-CoA
- Catalytic efficiency (kcat/KM) for adipyl-CoA over acetyl-CoA ([3]; FIG. 3C): higher catalytic efficiency for adipyl-CoA over acetyl-CoA
- Catalytic efficiency kcat/KM [1]: 3000 M⁻¹ s⁻¹
- Km [1]: 810 µM
- Turnover number kcat [1]: 2.5 s⁻¹
- Catalytic efficiency (kcat/KM) for adipyl-CoA over succinyl-CoA ([1]; ratio of kcat/KM, FIG. 3B): higher catalytic efficiency for adipyl-CoA over succinyl-CoA
- Catalytic efficiency (kcat/KM) for adipyl-CoA over acetyl-CoA ([1]; ratio of kcat/KM, FIG. 3C): higher catalytic efficiency for adipyl-CoA over acetyl-CoA
- Catalytic efficiency kcat/KM [2]: 150 M⁻¹ s⁻¹
- Km [2]: 100 µM
- Turnover number kcat [2]: 0.015 s⁻¹
- Catalytic efficiency (kcat/KM) for adipyl-CoA over succinyl-CoA ([2]; ratio of kcat/KM, FIG. 3B): higher catalytic efficiency for adipyl-CoA over succinyl-CoA
- Catalytic efficiency (kcat/KM) for adipyl-CoA over acetyl-CoA ([2]; ratio of kcat/KM, FIG. 3C): higher catalytic efficiency for adipyl-CoA over acetyl-CoA

Compound: CC(C)(COP(=O)(O)OP(=O)(O)OC[C@H]1O[C@@H](n2cnc3c(N)ncnc32)[C@H](O)[C@@H]1OP(=O)(O)O)[C@@H](O)C(=O)NCCC(=O)NCCSC(=O)CCC(=O)O [Succinyl-CoA]
- Catalytic efficiency kcat/KM [1]: 290 M⁻¹ s⁻¹
- Km [1]: 790 µM
- Turnover number kcat [1]: 0.23 s⁻¹
- Catalytic efficiency kcat/KM [2]: 26 M⁻¹ s⁻¹
- Km [2]: 400 µM
- Turnover number kcat [2]: 0.010 s⁻¹

Compound: Romboutsia lituseburensis DSM aldehyde dehydrogenase (Ald), SEQ ID NO: 107 (Romboutsia lituseburensis DSM 797)
- Km [4]: 220 µM
- kcat [4]: 0.056 s⁻¹
- kcat/Km [4]: 250 M⁻¹ s⁻¹
- Km [5]: 240 µM
- kcat [5]: 1.0 s⁻¹
- kcat/Km [5]: 4000 M⁻¹ s⁻¹
- Km [6]: 310 µM
- kcat [6]: 0.013 s⁻¹
- kcat/Km [6]: 40 M⁻¹ s⁻¹
